Assay results from ChEMBL document CHEMBL1201862, “PubChem BioAssay data set” (2004).
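Test compounds were applied to cells in 96-well plates for 48 hours at 5 doses. Here, GI50 denotes the concentration required for 50% inhibition of growth.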 The source made the active and inactive calls. Rule as the data show it: active = GI50 up to about 1.1 µM and inactive = higher.

Legend:
Test in all cases: DTP human tumour cell line panel, 48 h
HL-60 = system: HL-60
OVCAR-3 = system: OVCAR-3
CAKI-1 = system: CAKI-1
HCC 2998 = system: HCC 2998
SK-MEL-28 = system: SK-MEL-28
IGROV-1 = system: IGROV-1
OVCAR-8 = system: OVCAR-8
SNB-75 = system: SNB-75
UACC-257 = system: UACC-257
OVCAR-5 = system: OVCAR-5
MOLT-4 = system: MOLT-4
SF-539 = system: SF-539
RXF 393 = system: RXF 393
SW-620 = system: SW-620
NCI-H226 = system: NCI-H226
UO-31 = system: UO-31
A498 = system: A498
M14 = system: M14
DU-145 = system: DU-145
BT-549 = system: BT-549

| SMILES | GI50 (HL-60) | GI50 (OVCAR-3) | GI50 (CAKI-1) | GI50 (HCC 2998) | GI50 (SK-MEL-28) | GI50 (IGROV-1) | GI50 (OVCAR-8) | GI50 (SNB-75) | GI50 (UACC-257) | GI50 (OVCAR-5) | GI50 (MOLT-4) | GI50 (SF-539) | GI50 (RXF 393) | GI50 (SW-620) | GI50 (NCI-H226) | GI50 (UO-31) | GI50 (A498) | GI50 (M14) | GI50 (DU-145) | GI50 (BT-549) |
| --- | --- | --- | --- | --- | --- | --- | --- | --- | --- | --- | --- | --- | --- | --- | --- | --- | --- | --- | --- | --- |
| CCS(=O)(=O)Nc1ccc(Nc2c3ccccc3nc3ccccc23)c(OC)c1 | 0.0168 µM (active) | 2.03 µM (inactive) | 0.0962 µM (active) | 1.72 µM (inactive) | 3.03 µM (inactive) | 7.94 µM (inactive) | 0.885 µM (active) | 0.284 µM (active) | 2.6 µM (inactive) | 3.23 µM (inactive) | < 0.01 µM (active) | 0.295 µM (active) | 1.99 µM (inactive) | 0.527 µM (active) | 0.331 µM (active) | 0.397 µM (active) | 0.24 µM (active) | – | – | – |
| COC(=O)c1ccc(C)cc1C1CN=NC12Cc1cc(C)c(C)cc1C2=O (stereo not given) | 19.7 µM (inactive) | 49.5 µM (inactive) | 79.8 µM (inactive) | 29.8 µM (inactive) | 45.7 µM (inactive) | > 100 µM (inactive) | 65 µM (inactive) | 35.9 µM (inactive) | 53.2 µM (inactive) | > 100 µM (inactive) | 26.7 µM (inactive) | 50.6 µM (inactive) | 31.8 µM (inactive) | 35.6 µM (inactive) | 45.1 µM (inactive) | 46.1 µM (inactive) | 57.4 µM (inactive) | 35.4 µM (inactive) | 59.2 µM (inactive) | – |
| C[n+]1ccc2[nH]c3ccccc3c2c1 | > 100 µM (inactive) | > 100 µM (inactive) | > 100 µM (inactive) | > 100 µM (inactive) | > 100 µM (inactive) | > 100 µM (inactive) | > 100 µM (inactive) | > 100 µM (inactive) | > 100 µM (inactive) | > 58.3 µM (inactive) | 38.8 µM (inactive) | > 100 µM (inactive) | > 100 µM (inactive) | > 86.3 µM (inactive) | 61 µM (inactive) | > 100 µM (inactive) | 90.2 µM (inactive) | > 100 µM (inactive) | – | – |
| CCOC(=O)C(Cc1cn(C(C)=O)c2ccccc12)P(=O)(OCC)OCC (stereo not given) | – | > 100 µM (inactive) | > 100 µM (inactive) | > 100 µM (inactive) | > 100 µM (inactive) | > 100 µM (inactive) | > 100 µM (inactive) | > 100 µM (inactive) | > 100 µM (inactive) | > 100 µM (inactive) | > 100 µM (inactive) | – | – | > 100 µM (inactive) | > 100 µM (inactive) | > 100 µM (inactive) | – | > 100 µM (inactive) | > 100 µM (inactive) | – |
| Cc1cc(Cl)ccc1NC(=O)CC1SC(Nc2ccccc2Cl)=NC1=O (stereo not given) | 15.9 µM (inactive) | 28.3 µM (inactive) | 41.7 µM (inactive) | 52.2 µM (inactive) | 66.2 µM (inactive) | 49.5 µM (inactive) | 29.6 µM (inactive) | 38.7 µM (inactive) | 50.2 µM (inactive) | > 100 µM (inactive) | 30.2 µM (inactive) | 20.3 µM (inactive) | 26.1 µM (inactive) | 37.2 µM (inactive) | 24.2 µM (inactive) | 35.5 µM (inactive) | 65.6 µM (inactive) | 49.2 µM (inactive) | – | – |
| COc1cc2c(cc1OC)C1C3CCCCC3CCN1CC2 (stereo not given) | > 100 µM (inactive) | 79.4 µM (inactive) | > 100 µM (inactive) | > 100 µM (inactive) | > 100 µM (inactive) | > 100 µM (inactive) | > 100 µM (inactive) | 18.3 µM (inactive) | > 100 µM (inactive) | > 100 µM (inactive) | > 100 µM (inactive) | > 100 µM (inactive) | 27 µM (inactive) | > 100 µM (inactive) | 88.1 µM (inactive) | – | > 100 µM (inactive) | – | > 100 µM (inactive) | – |
| C=C(CCOC)CCC1CCCCC(=C)[C@H]1OC(C)=O (stereo not given in full) | 50.7 µM (inactive) | > 100 µM (inactive) | > 100 µM (inactive) | – | > 100 µM (inactive) | > 100 µM (inactive) | > 100 µM (inactive) | > 100 µM (inactive) | > 100 µM (inactive) | > 100 µM (inactive) | 59.7 µM (inactive) | > 100 µM (inactive) | – | > 100 µM (inactive) | 97.3 µM (inactive) | > 100 µM (inactive) | > 100 µM (inactive) | > 100 µM (inactive) | > 100 µM (inactive) | – |
| O=C(CCN(C(=O)O)S(=O)(=O)c1ccc(NC(=O)c2ccccc2)cc1)Nc1ccccc1 | > 61.8 µM (inactive) | > 100 µM (inactive) | > 100 µM (inactive) | > 100 µM (inactive) | > 100 µM (inactive) | > 100 µM (inactive) | > 96.2 µM (inactive) | > 100 µM (inactive) | > 65.3 µM (inactive) | > 100 µM (inactive) | > 64.6 µM (inactive) | > 100 µM (inactive) | > 100 µM (inactive) | > 55 µM (inactive) | > 100 µM (inactive) | > 100 µM (inactive) | > 100 µM (inactive) | > 100 µM (inactive) | – | – |
| COC(=O)c1cc2c(c(C(=O)OC)c1)CCC2 | 70.6 µM (inactive) | 49.4 µM (inactive) | 20.7 µM (inactive) | > 100 µM (inactive) | > 100 µM (inactive) | > 100 µM (inactive) | > 100 µM (inactive) | 34.8 µM (inactive) | > 100 µM (inactive) | > 100 µM (inactive) | 37.2 µM (inactive) | > 100 µM (inactive) | 82.6 µM (inactive) | > 100 µM (inactive) | – | 85.7 µM (inactive) | 63.7 µM (inactive) | > 100 µM (inactive) | > 100 µM (inactive) | – |
| CC1=NN2C(c3ccc([N+](=O)[O-])cc3)=CSC2=NC(C)(C)C1 | > 100 µM (inactive) | > 100 µM (inactive) | – | > 100 µM (inactive) | > 100 µM (inactive) | > 100 µM (inactive) | > 100 µM (inactive) | > 100 µM (inactive) | > 100 µM (inactive) | > 100 µM (inactive) | > 100 µM (inactive) | > 100 µM (inactive) | > 100 µM (inactive) | > 100 µM (inactive) | > 100 µM (inactive) | 88.1 µM (inactive) | > 100 µM (inactive) | > 100 µM (inactive) | – | – |
| COC(=O)C(Cc1c[nH]c2ccccc12)NC(=O)C(Cc1c[nH]cn1)NC(=O)C1CCC(=O)N1C(=O)OCc1ccccc1 (stereo not given) | > 100 µM (inactive) | – | – | > 100 µM (inactive) | > 100 µM (inactive) | > 100 µM (inactive) | > 100 µM (inactive) | > 100 µM (inactive) | > 100 µM (inactive) | > 100 µM (inactive) | > 100 µM (inactive) | – | > 100 µM (inactive) | > 100 µM (inactive) | > 100 µM (inactive) | > 100 µM (inactive) | 7.35 µM (inactive) | > 100 µM (inactive) | – | > 100 µM (inactive) |
| O=C(CCN1CCOCC1)C(=Cc1ccccc1)C(=O)CCN1CCOCC1 | 1.53 µM (inactive) | 3.97 µM (inactive) | 3.99 µM (inactive) | 13.7 µM (inactive) | 2.38 µM (inactive) | 6.78 µM (inactive) | 2.91 µM (inactive) | 15.5 µM (inactive) | 1.79 µM (inactive) | 19.2 µM (inactive) | 1.32 µM (inactive) | 3.44 µM (inactive) | 1.68 µM (inactive) | 1.92 µM (inactive) | 14.6 µM (inactive) | 12.3 µM (inactive) | 17.3 µM (inactive) | – | – | – |
| CCc1ccccc1NC(=O)C1=C(C)NC(C)=C(C(=O)Nc2ccccc2CC)C1c1ccccc1Cl | 64.6 µM (inactive) | > 100 µM (inactive) | > 100 µM (inactive) | > 100 µM (inactive) | > 100 µM (inactive) | > 100 µM (inactive) | > 100 µM (inactive) | 71.6 µM (inactive) | > 100 µM (inactive) | > 100 µM (inactive) | 92.7 µM (inactive) | > 100 µM (inactive) | > 100 µM (inactive) | > 100 µM (inactive) | > 100 µM (inactive) | 35.5 µM (inactive) | 18.7 µM (inactive) | > 100 µM (inactive) | – | – |
| C=C1CCC2C(C)(CO)C(O)CCC2(C)C1CC(O)/C(=C/CO)C(=O)O (stereo not given) | > 100 µM (inactive) | – | > 100 µM (inactive) | > 100 µM (inactive) | – | > 100 µM (inactive) | > 100 µM (inactive) | > 100 µM (inactive) | > 100 µM (inactive) | > 100 µM (inactive) | > 100 µM (inactive) | > 100 µM (inactive) | > 100 µM (inactive) | > 100 µM (inactive) | – | > 100 µM (inactive) | > 100 µM (inactive) | > 100 µM (inactive) | – | – |
| O=C(Nc1ccccc1-c1nn(CN2CCNCC2)c(=S)n(CN2CCNCC2)c1=O)C(F)(F)F | 16.4 µM (inactive) | 20.7 µM (inactive) | 23.9 µM (inactive) | 19.1 µM (inactive) | 18.9 µM (inactive) | 22.3 µM (inactive) | 20.6 µM (inactive) | 22.6 µM (inactive) | 17.2 µM (inactive) | 22.9 µM (inactive) | 23 µM (inactive) | 18.4 µM (inactive) | 16.3 µM (inactive) | 10.1 µM (inactive) | 17.2 µM (inactive) | 13.6 µM (inactive) | 18.2 µM (inactive) | 16.9 µM (inactive) | – | – |
| COC(=O)N/N=C(\C)c1sc(-c2nc(C)c(/C(C)=N/NC(=O)OC)s2)nc1C | 39.1 µM (inactive) | > 100 µM (inactive) | > 100 µM (inactive) | > 100 µM (inactive) | > 100 µM (inactive) | > 100 µM (inactive) | > 100 µM (inactive) | > 100 µM (inactive) | > 100 µM (inactive) | > 100 µM (inactive) | > 100 µM (inactive) | > 100 µM (inactive) | > 100 µM (inactive) | – | > 100 µM (inactive) | > 100 µM (inactive) | > 100 µM (inactive) | > 100 µM (inactive) | – | – |
